Assays:
[1] = target: T1, R:G complex (Bos taurus, UniProt P04896); experiment: Analytical gel filtration, stability of the R:G complex
T1 construct: HA signal peptide (N); made in house; host or cells: receptor: Sf9 insect cells (baculovirus); Gs subunits: HighFive insect cells
Protocol: […]. Nature 2011 469, 175-180). To maintain the high-affinity nucleotide-free state of the complex, apyrase (25 mU/ml, NEB) was added after 90 min to hydrolyze residual GDP released from G ? supon binding to the receptor. GMP resulting from hydrolysis of GDP by apyrase has very poor affinity for the G protein in the complex.
At this stage the mixture contains the R:G complex, non-functional Gs, and an excess of β2AR. […] To prevent cysteine bridge-mediated aggregation of R:G complexes, 100 μM TCEP was added to the eluted protein prior to concentrating it with a 50 kDa MWCO Millipore concentrator. Of note, it was discovered later that crystal growth improved at even higher TCEP concentrations (above 1 mM) compared to 100 μM TCEP, and that the integrity of the R:G complex in MNG-3 was stable to 10 mM TCEP as measured by gel filtration analysis (FIG. 21C). In contrast, DDM-solubilized β2AR loses its ability to bind the high-affinity antagonist ^3H-dihydroalprenolol in 10 mM TCEP (data not shown), probably due to disruption of extracellular disulfide bonds. Iodoacetamide could not be used to block reactive cysteines on Gs alpha and beta subunits as it caused dissociation of the R:G complex (figure S9b). […] Peak fractions were pooled (FIG. 17b) and concentrated to approximately 90 mg ml^−1 with a 100 kDa MWCO Viva-spin concentrator and analyzed by SDS-PAGE/Coomassie brilliant blue staining (FIG. 17a) and gel filtration (FIG. 17c). To confirm a pure, homogeneous, and dephosphorylated preparation, the R:G complex was routinely analyzed by ion exchange chromatography (FIG. 17d).

[2] = target: T2, T4L-β2AR (Homo sapiens, UniProt P07550, M96T/M98T/N187E); experiment: Ligand binding affinity of T4L-β2AR with M96T, M98T mutations
T2 construct: HA signal peptide (N, cleaved yes); made in house; host or cells: Sf9 insect cells, recombinant baculovirus
Text: To increase the probability of obtaining crystals of the R:G complex two strategies were used to increase the polar surface area on the extracellular side of the receptor. […] The PNGaseF-inaccessible glycosylation site of the β2AR at N187 was mutated to Glu.

T1 sequence (P04896 1-380 isoform P04896-2, one chain of several): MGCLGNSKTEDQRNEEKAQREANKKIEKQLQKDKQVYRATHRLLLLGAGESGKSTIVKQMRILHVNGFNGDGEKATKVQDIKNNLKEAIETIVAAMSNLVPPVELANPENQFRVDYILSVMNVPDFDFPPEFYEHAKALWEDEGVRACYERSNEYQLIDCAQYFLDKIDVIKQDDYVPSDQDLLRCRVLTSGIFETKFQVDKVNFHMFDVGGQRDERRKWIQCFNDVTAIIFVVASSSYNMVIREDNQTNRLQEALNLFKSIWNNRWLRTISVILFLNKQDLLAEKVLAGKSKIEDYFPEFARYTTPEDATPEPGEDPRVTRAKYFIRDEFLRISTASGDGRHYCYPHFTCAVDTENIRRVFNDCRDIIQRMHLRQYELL

For Nc1nc2c(ncn2[C@@H]2O[C@H](COP(=O)(O)OP(=O)(O)O)[C@@H](O)[C@H]2O)c(=O)[nH]1 [GDP], the “effect on the R:G complex” value ([1]; nucleotides at 0.1 mM) was “cause dissociation of the R:G complex”.

In the case of Nc1nc2c(ncn2[C@@H]2O[C@H](COP(=O)(O)OP(=O)(O)OP(O)(O)=S)[C@@H](O)[C@H]2O)c(=O)[nH]1 [GTPγS], the “effect on the R:G complex” value ([1]; nucleotides at 0.1 mM) is reported as “cause dissociation of the R:G complex”.

With CCCc1ccccc1OCC(O)CNC(C)C (centres unmarked) [[3H]-Dihydroalprenolol, dihydroalprenolol] the “effect of the threonine mutations (M96T, M98T) on ligand binding affinity” value [2] was “did not affect ligand binding affinity”.

For NC(=O)CI [iodoacetamide], the “effect on the R:G complex” value ([1]; 5 mM for 20 hrs at 20° C.) was “led to dissociation of the complex”.

O=P(O)(O)OP(=O)(O)O [pyrophosphate] was tested, and the “effect on the R:G complex” value ([1]; phosphates used at 5 mM) was “do not cause disruption of the complex”.

Source: US9422359B2, “GPCR fusion protein containing an N-terminal autonomously folding stable domain, and crystals of the same” (The Board of Trustees of the Leland Stanford Junior …, priority 2011, dated 2016)
